Test results taken from US20100143270A1, “THERAPEUTIC COTININE COMPOSITIONS” (University of Louisville Research Foubdation, priority 2007, published 2010).
“Also recorded” adds a separate entry of the source.

Assays:
THP-1 cells = assay: IL-10 release by LPS-stimulated THP-1 cells (ELISA); type: cell-based
Description: (§1) FIG. 11. The anti-inflammatory potential of cotinine is a GSK-3β-dependent but NF-κB-independent phenomenon. THP-1 Blue cells are stably transfected with a reporter plasmid expressing secreted embryonic alkaline phosphatase (SEAP) gene under the control of a NF-κB-inducible promoter. […] Cell-free supernatants were harvested by centrifugation and relative expression levels of SEAP (reflecting NF-κB; THP-1 Blue; circles) and IL-10 (THP-1; bars) were determined by spectrophotometric analysis of SEAP activity and ELISA, respectively.
(§2) THP-1 Blue cells are monocyte-like cells that have been stably transfected with a reporter plasmid expressing secreted embryonic alkaline phosphatase (SEAP) gene under the control of a NF-κB-inducible promoter. […] Cell-free supernatants were harvested by centrifugation and relative expression levels of NF-κB and IL-10 were determined by spectrophotometric analysis of SEAP activity and ELISA, respectively.
Levels of phosphorylated Akt and phoshorylated GSK-3β following cotinine (0-100 ng ml^−1) and/or E. coli LPS (1 μg ml^−1) treatment were determined by western blot using whole-cell lysates (20 μg) with probing for Akt using a phospho-specific Akt (Ser473) antibody; probing for GSK-3β using a phospho-specific GSK-3β (Ser9; denoted pGSK-3β) antibody; with the blots stripped and re-probed for total p38 to ensure equivalent loading. Antibodies were purchased from Cell Signaling, Beverly, Mass. Blots were visualized by enhanced chemiluminescence. The importance of the PI3K-dependent anti-inflammatory pathway in cotinine-induced inflammatory suppression was also established by pharmacological inhibition of PI3K and GSK-3β using the PI3K antagonists LY294002 (25 μM; Calbiochem®, San Diego, Calif.) and wortmannin (100 nM, Calbiochem); and the GSK-3β inhibitor SB216763 (6 μM; Sigma). […] Therefore, cells were also analyzed for cotinine-induced PI3K activation by, assaying the ability of PI3K to produce PIP3. Levels of PIP3 were determined by ELISA using a competitive inhibition assay (Echelon Bioscience, Salt Lake City, Utah). […]

[1] = tested on: striatal dopamine release; details: cited from earlier work
LPS-stimulated monocytes [2] = assay: Pro-inflammatory cytokine release by LPS-stimulated human monocytes (ELISA); type: cell-based
Description: FIGS. 3A-3E. […] Monocytes were pre-treated with cotinine (1000 ng/ml) for 2 hours then stimulated with purified LPS (0 to 1×10^4 ng/ml) for 24 hours.
FIGS. 6A-6E. […] Cells were pre-treated with nicotine or cotinine (100 and 1000 ng/ml, respectively) for 2 hours then stimulated with purified LPS (0 to 1×10^4 ng/ml) for 24 hours. […] FIG. 6A provides data for IFNγ; FIG. 6B provides data for IL-1β, FIG. 6C provides data for IL-6, FIG. 6D provides data for TNF-α, and FIG. 6E provides data for IL-12/IL-23 p40.
Cotinine inhibited the production and release of multiple pro-inflammatory cytokines by monocytes stimulated with Toll-like receptor (TLR)-agonists in a dose-dependent manner. Cells were pre-treated with cotinine for 2 hours then stimulated with a TLR-agonist (purified LPS, 0 to 1×10^4 ng ml^−1) for 24 hours.
Inflammatory response of cotinine-exposed monocytes to P. gingivalis and LPS: In an initial series of experiments, we determined how physiological doses of nicotine and cotinine influenced levels of TNF secreted by monocytes stimulated with LPS. Human monocytes were pre-treated for 90 minutes with nicotine (1 to 1,000 ng/ml; Sigma-Aldrich, Inc.) or cotinine (1 to 10,000 ng/ml; Sigma-Aldrich, Inc.), then stimulated with purified E. coli K-12 LPS (0 to 10 μg/ml; InVivoGen™, San Diego, Calif.). TNF concentrations in 24 hr supernatants were measured by ELISA (eBioscience, San Diego, Calif.). Subsequently, the concentrations of multiple cytokines in 24 hr supernatants of cotinine pre-incubated (1000 ng/ml) LPS-([…]) stimulated monocytes were measured by ELISA (IFN-γ (PBL Biomed Labs, Piscataway, N.J.), IL-1β, IL-6, TNF, IL-10 (all eBioscience), and IL-12/IL-23 p40 (R&D Systems, Minneapolis, Minn.).
Primary monocytes were pre-treated with nicotine (0-100 ng ml^−1) or cotinine (0-1000 ng ml^−1) then stimulated with the Gram negative periodontal pathogen P. gingivalis (MOI=0-10); purified E. coli K-12 LPS (0-1 μml^−1; InVivoGen™, San Diego, Calif.); or purified P. gingivalis 33277 LPS for 20 h. Primary monocytes were also pre-treated with cotinine (100 ng ml^−1) then stimulated with increasing doses of LPS for 20 h. Cell-free supernatants were harvested by centrifugation and cytokine levels (TNF, IL-6, IL-10, IL-12/IL-23 p40, as appropriate) were determined by ELISA (eBioscience, San Diego, Calif. or R&D Systems, Minneapolis, Minn.).

Akt (Ser473) = assay: Phosphorylated Akt western blot in monocytes; type: cell-based, human; details: P. gingivalis stimulated monocytes; PI3K-dependent
Description: (§3) Antibodies were purchased from Cell Signaling, Beverly, Mass. Blots were visualized by enhanced chemiluminescence. The importance of the PI3K-dependent anti-inflammatory pathway in cotinine-induced inflammatory suppression was also established by pharmacological inhibition of PI3K and GSK-3β using the PI3K antagonists LY294002 (25 μM; Calbiochem®, San Diego, Calif.) and wortmannin (100 nM, Calbiochem); and the GSK-3β inhibitor SB216763 (6 μM; Sigma). Activated PI3K produces PIP3 that, in turn, activates downstream signaling components of the PI3K pathway. Therefore, cells were also analyzed for cotinine-induced PI3K activation by, assaying the ability of PI3K to produce PIP3. Levels of PIP3 were determined by ELISA using a competitive inhibition assay (Echelon Bioscience, Salt Lake City, Utah). The specific PI3K inhibitor LY294002 was used at 25 μM and served as a control to block PI3K activity.

primary monocytes = assay: Viability of primary monocytes
Description: Monocytes were pre-treated for 2 h with nicotine (triangles) or cotinine (squares) then stimulated with P. gingivalis (MOI=10) for 20 h. Cell-free supernatants were harvested by centrifugation and levels of TNF-α were determined by ELISA.
(A-E) Control monocytes (closed squares) and monocytes pre-treated with cotinine (100 ng ml^−1) for 2 hours (open squares) were stimulated with P. gingivalis 33277 LPS (0-10^5 ng ml^−1) for 24 hours. Cell-free supernatants were harvested by centrifugation and levels of pro-inflammatory cytokines (A-E) and IL-10 (E) were determined by ELISA. Data are the arithmetic mean±s.d. of 3 experiments.

[3] = tested on: nicotinic receptors in the brain; details: cited from earlier work
[4] = cited from earlier work
NF-κB = assay: NF-κB-inducible SEAP reporter in LPS-stimulated THP-1 Blue cells; type: cell-based; details: cotinine 100 ng ml^−1 2 h, LPS 1 μg ml^−1 24 h
Description: as §1, §2

LPS-stimulated monocytes [5] = assay: IL-10 release by LPS-stimulated human monocytes (ELISA); type: cell-based
[6] = tested on: THP-1 or THP-1 Blue cells; assay: Viability of THP-1 or THP-1 Blue cells; type: cell-based; details: cotinine 100 ng ml^−1
PI3K = PI3K activation in monocytes measured as PIP3 (competitive ELISA); type: cell-based, human; details: LPS 1 μg ml^−1 60 minutes
GSK-3β (Ser9) = assay: Phosphorylated GSK-3β western blot in monocytes; type: cell-based, human; details: P. gingivalis stimulated monocytes
Description: as §3

[7] = cited from earlier work; for Terminal elimination half-life: in vivo
[8] = tested on: P. gingivalis-stimulated human monocytes; assay: TNF release by P. gingivalis-stimulated human monocytes (ELISA); type: cell-based; details: for TNF release compared to cells stimulated with P. gingivalis alone: 2 h pre-treatment with nicotine or cotinine, P. gingivalis MOI=10 for 20 h, dose-dependent
neutrophils = details: cited from earlier work
[9] = cotinine 100 ng ml^−1 2 h, P. gingivalis 33277 LPS 0-10^5 ng ml^−1 24 h
[10] = cotinine 1000 ng/ml 2 h, LPS 0 to 1×10^4 ng/ml 24 h

## Cn1cc(C2=C(c3ccc(Cl)cc3Cl)C(=O)NC2=O)c2ccccc21 [SB216763]
THP-1 cells; GSK-3β inhibitor SB216763 6 μM, LPS
  IL-10 production: enhances IL-10 production in response to LPS
THP-1 cells; SB216763 versus cotinine 10 ng ml^−1, p<0.05
  Potency as inducer of IL-10 relative to cotinine: significantly less potent inducer of IL-10 than cotinine; also recorded: less potent than even low doses of cotinine

## CN1C(=O)CC[C@H]1c1cccnc1 [cotinine, (S)-1-methyl-5-(3-pyridinyl)-2-Pyrrolidinone]
[1]
  Striatal dopamine release: evokes striatal dopamine release
LPS-stimulated monocytes [2]; [9]
  IL-1β release: dramatically suppresses
  IL-6 release: dramatically suppresses
  IL-12/IL-23 p40 subunit release: dramatically suppresses
  TNF-α release: dramatically suppresses
LPS-stimulated monocytes [2]; [10]
  IFN-γ production: suppressed
  IL-1β production: suppressed
  IL-6 production: suppressed
  IL-12/IL-23 p40 production: suppressed
  TNF-α production: suppressed
THP-1 cells; cotinine pre-treatment 2 h, LPS 1 μg ml^−1 24 h
  IL-10 production: augment IL-10 production
Akt (Ser473)
  Levels of phosphorylated (active) Akt: enhances
Primary monocytes; cotinine 0 to 10^5 ng ml^−1
  Viability of primary monocytes compared to P. gingivalis alone: no statistically significant effect
Primary monocytes; cotinine 100 ng ml^−1
  Viability of primary monocytes compared to LPS alone: no statistically significant effect
[3]
  Upregulation of nicotinic receptor expression in the brain: does not appear to upregulate
[4]; cotinine infusions in humans
  Vasoactivity (heart rate, blood pressure, skin temperature): may not be vasoactive
[4]; in vivo
  Addictiveness: non-addictive
[4]; levels as high as 10 times that attained from cigarette smoking
  Safety of administration to humans: safe
NF-κB
  LPS-induced NF-κB (SEAP activity): not affected; also recorded: not influenced
LPS-stimulated monocytes [5]; cotinine 0 to 10,000 ng/ml 2 h, purified LPS 24 h
  IL-10 release: increased the production and release; also recorded: enhanced production; also recorded: increases the release
LPS-stimulated monocytes [5]; cotinine 100 ng ml^−1 2 h, P. gingivalis 33277 LPS 24 h
  IL-10 production: enhancing production; also recorded: augments IL-10 production
[6]
  Viability of THP-1 or THP-1 Blue cells compared to LPS alone: no statistically significant effect
PI3K
  PIP3 levels (PI3K activation): potently augments the activation of PI3K; also recorded: increased PIP3 levels
GSK-3β (Ser9)
  Levels of phosphorylated (inactive) GSK3-β: augments
[7]; humans
  Systemic concentration relative to nicotine: ten-fold
[7]
  Terminal elimination half-life: sixteen
  Mean concentration in smokers: 200 to 500 ng/mL
[7]; second-hand smokers
  Systemic levels in second-hand smokers: 1 to 15 ng/mL
[8]
  TNF release compared to cells stimulated with P. gingivalis alone: equally as effective as nicotine; also recorded: produce significantly less TNF-α
neutrophils
  Release of free radicals from neutrophils: suppresses the release of free radicals from neutrophils

## CNC1(C)C2CCC(C2)C1(C)C (centres unmarked) [mecamylamine]
[8]; mecamylamine 10 μM pre-incubation
  Effect of non-selective nAChR antagonist on cotinine-induced inflammatory suppression: nAChR-dependent phenomenon

## CN1CCC[C@H]1c1cccnc1 [nicotine, (S)-3-(1-methyl-2-pyrrolidinyl)pyridine, reference compound]
PI3K
  PIP3 levels (PI3K activation): increased PIP3 levels
[7]
  Terminal elimination half-life: two
  Mean concentration in smokers: ~30 ng/mL
[7]; metabolized by the liver
  Fraction of nicotine converted to cotinine: up to 80%
[8]
  TNF release compared to cells stimulated with P. gingivalis alone: inhibits the release of TNF; also recorded: produce significantly less TNF-α
